Assay results published in ChEMBL document CHEMBL3792317, “Novel tetrazoloquinoline-rhodanine conjugates: Highly efficient synthesis and biological evaluation” (Bioorg Med Chem Lett, 2016).
Values after ≈ are worked out from the molar mass of the structure shown.

Tests used:
[1] = Selectivity index, ratio of GI50 for human PANC1 cells to MIC for Mycobacterium tuberculosis H37Ra ATCC 25177; type: toxicity, cell-based, PANC-1; settings: read-out: Selectivity Index
[2] = Selectivity index, ratio of GI50 for human THP1 cells to MIC for Mycobacterium bovis BCG ATCC 35743; type: toxicity, cell-based, THP-1; settings: read-out: Selectivity Index
[3] = (§1) Cytotoxicity against human A549 cells after 48 hrs by MTT assay; type: cell-based; settings: A549 cells
[4] = Selectivity index, ratio of GI50 for human PANC1 cells to MIC for Mycobacterium bovis BCG ATCC 35743; type: toxicity, cell-based, PANC-1; settings: read-out: Selectivity Index
[5] = (§2) Cytotoxicity against human HeLa cells after 48 hrs by MTT assay; type: cell-based; settings: HeLa cells
[6] = tested on: Mycobacterium tuberculosis; assay: Antitubercular activity against Mycobacterium tuberculosis H37Ra ATCC 25177 incubated for 40 mins by XTT Reduction Menadione Assay; type: functional; settings: H37Ra ATCC 25177, 40 min
[7] = Cytotoxicity against human PANC1 cells after 48 hrs by MTT assay; type: cell-based, PANC-1; settings: for GI50 at 48 h: PANC1 cells; for GI90: panc-1, 48 h
[8] = Cytotoxicity against human THP1 cells after 48 hrs by MTT assay; type: cell-based, THP-1; settings: for GI50 at 48 h: THP1 cells; for GI90: thp-1, 48 h
[9] = Selectivity index, ratio of GI50 for human HeLa cells to MIC for Mycobacterium tuberculosis H37Ra ATCC 25177; type: toxicity, cell-based; settings: read-out: Selectivity Index
[10] = Selectivity index, ratio of GI50 for human THP1 cells to MIC for Mycobacterium tuberculosis H37Ra ATCC 25177; type: toxicity, cell-based, THP-1; settings: read-out: Selectivity Index
[11] = tested on: Mycobacterium tuberculosis; assay: Antitubercular activity against active Mycobacterium tuberculosis H37Ra ATCC 25177 incubated for 40 mins by XTT Reduction Menadione Assay; type: functional; settings: H37Ra ATCC 25177, 40 min
[12] = Selectivity index, ratio of GI50 for human A549 cells to MIC for Mycobacterium bovis BCG ATCC 35743; type: toxicity, cell-based; settings: read-out: Selectivity Index
[13] = tested on: Mycobacterium bovis BCG str. ATCC 35743; assay: Antitubercular activity against dormant Mycobacterium bovis BCG ATCC 35743 incubated for 40 mins by XTT Reduction Menadione Assay; type: functional
[14] = tested on: Mycobacterium tuberculosis; assay: Antitubercular activity against dormant Mycobacterium tuberculosis H37Ra ATCC 25177 incubated for 40 mins by XTT Reduction Menadione Assay; type: functional; settings: H37Ra ATCC 25177, 40 min
[15] = Selectivity index, ratio of GI50 for human A549 cells to MIC for Mycobacterium tuberculosis H37Ra ATCC 25177; type: toxicity, cell-based; settings: read-out: Selectivity Index
[16] = Antitubercular activity against Mycobacterium bovis BCG ATCC 35743 incubated for 40 mins by XTT Reduction Menadione Assay; type: functional, Mycobacterium bovis BCG str. ATCC 35743; settings: Mycobacterium tuberculosis variant bovis BCG, ATCC 35743, 40 min
[17] = tested on: Mycobacterium bovis BCG str. ATCC 35743; assay: Antitubercular activity against active Mycobacterium bovis BCG ATCC 35743 incubated for 40 mins by XTT Reduction Menadione Assay; type: functional
[18] = Selectivity index, ratio of GI50 for human HeLa cells to MIC for Mycobacterium bovis BCG ATCC 35743; type: toxicity, cell-based; settings: read-out: Selectivity Index
[19] = tested on: Mycobacterium tuberculosis; assay: Antitubercular activity against Mycobacterium tuberculosis H37Ra ATCC 25177 at 30 ug/ml incubated for 40 mins by XTT Reduction Menadione Assay; type: functional; settings: H37Ra ATCC 25177, 40 min, read-out: GI
A549 = assay: as §1; type: cell-based; settings: a549, 48 h
[20] = tested on: Mycobacterium tuberculosis; assay: Antitubercular activity against Mycobacterium tuberculosis H37Ra ATCC 25177 at 3 ug/ml incubated for 40 mins by XTT Reduction Menadione Assay; type: functional; settings: H37Ra ATCC 25177, 40 min, read-out: GI
HeLa = assay: as §2; type: cell-based; settings: hela, 48 h
Candida albicans = assay: Antifungal activity against Candida albicans NCIM 3471 after 48 hrs by agar cup plate method; type: functional; settings: NCIM 3471, 48 h
[21] = tested on: Mycobacterium bovis BCG str. ATCC 35743; assay: Antitubercular activity against dormant Mycobacterium bovis BCG ATCC 35743 at 3 ug/ml incubated for 40 mins by XTT Reduction Menadione Assay; type: functional
[22] = tested on: Mycobacterium bovis BCG str. ATCC 35743; assay: Antitubercular activity against dormant Mycobacterium bovis BCG ATCC 35743 at 30 ug/ml incubated for 40 mins by XTT Reduction Menadione Assay; type: functional
Aspergillus flavus = assay: Antifungal activity against Aspergillus flavus NCIM 539 after 48 hrs by agar cup plate method; type: functional; settings: NCIM 539, 48 h
[23] = tested on: Mycobacterium bovis BCG str. ATCC 35743; assay: Antitubercular activity against dormant Mycobacterium bovis BCG ATCC 35743 at 10 ug/ml incubated for 40 mins by XTT Reduction Menadione Assay; type: functional
Aspergillus niger = assay: Antifungal activity against Aspergillus niger NCIM 1196 after 48 hrs by agar cup plate method; type: functional; settings: NCIM 1196, 48 h
Fusarium oxysporum = assay: Antifungal activity against Fusarium oxysporum NCIM 1332 after 48 hrs by agar cup plate method; type: functional; settings: NCIM 1332, 48 h
[24] = tested on: Mycobacterium tuberculosis; assay: Antitubercular activity against Mycobacterium tuberculosis H37Ra ATCC 25177 at 10 ug/ml incubated for 40 mins by XTT Reduction Menadione Assay; type: functional; settings: H37Ra ATCC 25177, 40 min, read-out: GI
Cryptococcus neoformans = assay: Antifungal activity against Cryptococcus neoformans NCIM 576 after 48 hrs by agar cup plate method; type: functional; settings: NCIM 576, 48 h
Bacillus subtilis = assay: Antibacterial activity against Bacillus subtilis after 18 hrs by broth dilution method; type: functional
Pseudomonas fluorescens = assay: Antibacterial activity against Pseudomonas fluorescens after 18 hrs by broth dilution method; type: functional
Escherichia coli = assay: Antibacterial activity against Escherichia coli after 18 hrs by broth dilution method; type: functional
Staphylococcus aureus = assay: Antibacterial activity against Staphylococcus aureus after 18 hrs by broth dilution method; type: functional

Structure (SMILES)	GI50 at 48 h [3] [µg/mL]	GI50 at 48 h [5] [µg/mL]	MIC [6] [µg/mL]	GI50 at 48 h [7] [µg/mL]	GI50 at 48 h [8] [µg/mL]	IC90 [11] [µg/mL]	IC90 [13] [µg/mL]	IC90 [14] [µg/mL]	MIC [16] [µg/mL]	inhibition of growth at 30 µg/mL [19] [%]	GI90 (A549) [µg/mL]	inhibition of growth at 3 µg/mL [20] [%]	GI90 (HeLa) [µg/mL]	MIC (Candida albicans) [µg/mL]	GI90 [7] [µg/mL]	growth inhibition (GI) [21] [%]	growth inhibition (GI) [22] [%]	GI90 [8] [µg/mL]	MIC (Aspergillus flavus) [µg/mL]	growth inhibition (GI) [23] [%]	other results
CO[C@H]1/C=C/O[C@@]2(C)Oc3c(C)c(O)c4c(O)c(c(/C=N/N5CCN(C)CC5)c(O)c4c3C2=O)NC(=O)/C(C)=C\C=C\[C@H](C)[C@H](O)[C@@H](C)[C@@H](O)[C@@H](C)[C@H](OC(C)=O)[C@@H]1C [RIFAMPIN]	> 100	> 100	0.72 (≈ 0.875 µM)	> 100	> 100	0.05 (≈ 0.0608 µM)	0.89 (≈ 1.08 µM)	0.72 (≈ 0.875 µM)	0.89 (≈ 1.08 µM)												selectivity ratio [1]: > 139; selectivity ratio [2]: > 112; selectivity ratio [4]: > 112; selectivity ratio [9]: > 139; selectivity ratio [10]: > 139; selectivity ratio [12]: > 112; selectivity ratio [15]: > 139; IC90 [17]: 0.061 µg/mL (≈ 0.0741 µM); selectivity ratio [18]: > 112
Cc1ccc2cc(/C=C3\SC(=S)N(CC(=O)O)C3=O)c3nnnn3c2c1	> 100	> 100	159 (≈ 413 µM)	> 100	> 100	> 250	24.2 (≈ 62.7 µM)	159 (≈ 413 µM)	24.2 (≈ 62.7 µM)	65	> 100	31.7	> 100	75 (≈ 195 µM)	> 100	-4.5	50.6	> 100	50 (≈ 130 µM)	19.2	MIC (Aspergillus niger): 150 µg/mL (≈ 389 µM); MIC (Fusarium oxysporum): 100 µg/mL (≈ 259 µM); inhibition of growth at 10 µg/mL [24]: 49.2%; MIC (Cryptococcus neoformans): 150 µg/mL (≈ 389 µM)
Cc1ccc2cc(/C=C3\SC(=S)N(CCC(=O)O)C3=O)c3nnnn3c2c1	> 100	> 100	42.2 (≈ 106 µM)	> 100	> 100	45 (≈ 113 µM)	45.4 (≈ 114 µM)	42.2 (≈ 106 µM)	45.4 (≈ 114 µM)	60.3	> 100	16.6	> 100	25 (≈ 62.6 µM)	> 100	4.55	41.2	> 100	50 (≈ 125 µM)	12.3	MIC (Aspergillus niger): 100 µg/mL (≈ 250 µM); MIC (Fusarium oxysporum): 50 µg/mL (≈ 125 µM); inhibition of growth at 10 µg/mL [24]: 30%; MIC (Cryptococcus neoformans): 50 µg/mL (≈ 125 µM)
Cc1ccc2cc(/C=C3\SC(=S)NC3=O)c3nnnn3c2c1	> 100	> 100	4.5 (≈ 13.7 µM)	> 100	> 100	5.5 (≈ 16.8 µM)	2.01 (≈ 6.14 µM)	4.5 (≈ 13.7 µM)	2.01 (≈ 6.14 µM)	98	> 100	82.9	> 100	150 (≈ 458 µM)	> 100	100	97.8	> 100	125 (≈ 382 µM)	100	selectivity ratio [1]: 22.2; MIC (Bacillus subtilis): 188 µg/mL (≈ 574 µM); selectivity ratio [2]: 49.8; selectivity ratio [4]: 49.8; MIC (Pseudomonas fluorescens): 211 µg/mL (≈ 643 µM); MIC (Escherichia coli): 208 µg/mL (≈ 636 µM); selectivity ratio [9]: 22.2; selectivity ratio [10]: 22.2; MIC (Aspergillus niger): 100 µg/mL (≈ 305 µM); selectivity ratio [12]: 49.8; MIC (Staphylococcus aureus): 205 µg/mL (≈ 626 µM); selectivity ratio [15]: 22.2; MIC (Fusarium oxysporum): 150 µg/mL (≈ 458 µM); inhibition of growth at 10 µg/mL [24]: 99.7%; IC90 [17]: 2.25 µg/mL (≈ 6.87 µM); MIC (Cryptococcus neoformans): 100 µg/mL (≈ 305 µM); selectivity ratio [18]: 49.8
